The record followed here is PubChem BioAssay AID1259407 (Chemical Carcinogenesis Research Information System (CCRIS), 2018).

The source made the active and inactive calls. How the calls were made is not given here.

The test system of this data set is CCRIS mutagenicity, Ames/micronucleus/aberration tests. The experiment in a line: CCRIS mutagenicity studies.
[1] abbreviates: Test System: AMES SALMONELLA TYPHIMURIUM, Strain/Indicator: TA98, Metabolic Activation: NONE, Method: PREINCUBATION

`COP(=S)(OC)Oc1ccc([N+](=O)[O-])c(C)c1`: the mutagenic call is “inactive; negative” (End Point: IN VIVO MICRONUCLEUS, Test System: BONE MARROW POLYCHROMATIC ERYTHROCYTES, Species: MOUSE, Strain/Sex: DDY/MALE, Route: IP); “inactive; negative” under setting [1]; “inactive; negative” (Test System: AMES SALMONELLA TYPHIMURIUM, Strain/Indicator: TA98, Metabolic Activation: NONE, Method: STANDARD PLATE); “inactive; negative” (Test System: AMES SALMONELLA TYPHIMURIUM, Strain/Indicator: TA98, Metabolic Activation: RAT LIVER S-9 (10%), Method: PREINCUBATION); “inactive; negative” (Test System: AMES SALMONELLA TYPHIMURIUM, Strain/Indicator: TA98, Metabolic Activation: RAT, LIVER, S-9, AROCLOR 1254, Method: STANDARD PLATE); “inactive; negative” (Test System: AMES SALMONELLA TYPHIMURIUM, Strain/Indicator: TA98, Metabolic Activation: S-9, NADPH GENERATING SYSTEM, Method: STANDARD PLATE). Besides, the mutagenic call is, setting by setting: (Test System: AMES SALMONELLA TYPHIMURIUM, Strain/Indicator: TA100, Metabolic Activation: NONE, Method: PREINCUBATION) “inactive; negative”; (Test System: AMES SALMONELLA TYPHIMURIUM, Strain/Indicator: TA100, Metabolic Activation: NONE, Method: STANDARD PLATE) “inactive; negative”; (Test System: AMES SALMONELLA TYPHIMURIUM, Strain/Indicator: TA100, Metabolic Activation: RAT LIVER S-9 (10%), Method: PREINCUBATION) “inactive; negative”; (Test System: AMES SALMONELLA TYPHIMURIUM, Strain/Indicator: TA100, Metabolic Activation: RAT, LIVER, S-9, AROCLOR 1254, Method: STANDARD PLATE) “inactive; negative”; (Test System: AMES SALMONELLA TYPHIMURIUM, Strain/Indicator: TA100, Metabolic Activation: S-9 MIX, Method: STANDARD PLATE) “active; positive”; (Test System: AMES SALMONELLA TYPHIMURIUM, Strain/Indicator: TA102, Metabolic Activation: NONE, Method: STANDARD PLATE) “inactive; negative”. For the same compound, the mutagenic call was “inactive; negative” (Test System: AMES SALMONELLA TYPHIMURIUM, Strain/Indicator: TA102, Metabolic Activation: S-9, NADPH GENERATING SYSTEM, Method: STANDARD PLATE); “inactive; negative” (Test System: AMES SALMONELLA TYPHIMURIUM, Strain/Indicator: TA1535, Metabolic Activation: NONE, Method: STANDARD PLATE); “inactive; negative” (Test System: AMES SALMONELLA TYPHIMURIUM, Strain/Indicator: TA1535, Metabolic Activation: S-9, NADPH GENERATING SYSTEM, Method: STANDARD PLATE); “inactive; negative” (Test System: AMES SALMONELLA TYPHIMURIUM, Strain/Indicator: TA1537, Metabolic Activation: NONE, Method: STANDARD PLATE); “inactive; negative” (Test System: AMES SALMONELLA TYPHIMURIUM, Strain/Indicator: TA1537, Metabolic Activation: S-9, NADPH GENERATING SYSTEM, Method: STANDARD PLATE); “inactive; negative” (Test System: AMES SALMONELLA TYPHIMURIUM, Strain/Indicator: YG1021, Metabolic Activation: NONE, Method: PREINCUBATION). For the same compound, the mutagenic call is “inactive; negative” (Test System: AMES SALMONELLA TYPHIMURIUM, Strain/Indicator: YG1021, Metabolic Activation: RAT LIVER S-9 (10%), Method: PREINCUBATION); “inactive; negative” (Test System: AMES SALMONELLA TYPHIMURIUM, Strain/Indicator: YG1024, Metabolic Activation: NONE, Method: PREINCUBATION); “inactive; negative” (Test System: AMES SALMONELLA TYPHIMURIUM, Strain/Indicator: YG1024, Metabolic Activation: RAT LIVER S-9 (10%), Method: PREINCUBATION); “active; positive” (Test System: AMES SALMONELLA TYPHIMURIUM, Strain/Indicator: YG1026, Metabolic Activation: NONE, Method: PREINCUBATION); “active; positive” (Test System: AMES SALMONELLA TYPHIMURIUM, Strain/Indicator: YG1026, Metabolic Activation: RAT LIVER S-9 (10%), Method: PREINCUBATION); “active; positive” (Test System: AMES SALMONELLA TYPHIMURIUM, Strain/Indicator: YG1029, Metabolic Activation: NONE, Method: PREINCUBATION). Moreover, the mutagenic call is “active; positive” (Test System: AMES SALMONELLA TYPHIMURIUM, Strain/Indicator: YG1029, Metabolic Activation: RAT LIVER S-9 (10%), Method: PREINCUBATION); “active; positive” (Test System: AMES SALMONELLA TYPHIMURIUM, Strain/Indicator: YG1041, Metabolic Activation: NONE, Method: PREINCUBATION); “active; positive” (Test System: AMES SALMONELLA TYPHIMURIUM, Strain/Indicator: YG1041, Metabolic Activation: RAT LIVER S-9 (10%), Method: PREINCUBATION); “active; positive” (Test System: AMES SALMONELLA TYPHIMURIUM, Strain/Indicator: YG1042, Metabolic Activation: NONE, Method: PREINCUBATION); “active; positive” (Test System: AMES SALMONELLA TYPHIMURIUM, Strain/Indicator: YG1042, Metabolic Activation: RAT LIVER S-9 (10%), Method: PREINCUBATION).
Take `O=C(Nc1ccc([N+](=O)[O-])cc1Cl)c1cc(Cl)ccc1O`: the mutagenic call is “inactive; negative” (Test System: AMES SALMONELLA TYPHIMURIUM, Strain/Indicator: TA98(NR), Metabolic Activation: RAT, LIVER, S-9, AROCLOR 1254, Method: STANDARD PLATE); “inactive; negative” under setting [1]; “active; positive” (Test System: AMES SALMONELLA TYPHIMURIUM, Strain/Indicator: TA98, Metabolic Activation: RAT, LIVER, S-9, AROCLOR 1254, Method: PREINCUBATION); “inactive; negative” (Test System: AMES SALMONELLA TYPHIMURIUM, Strain/Indicator: TA1538, Metabolic Activation: NONE, Method: PREINCUBATION); “active; positive” (Test System: AMES SALMONELLA TYPHIMURIUM, Strain/Indicator: TA1538, Metabolic Activation: RAT, LIVER, S-9, AROCLOR 1254, Method: PREINCUBATION); “inactive; negative” (Test System: AMES SALMONELLA TYPHIMURIUM, Strain/Indicator: TA1978, Metabolic Activation: NONE, Method: PREINCUBATION). Moreover, the mutagenic call was “inactive; negative” (Test System: AMES SALMONELLA TYPHIMURIUM, Strain/Indicator: TA1978, Metabolic Activation: RAT, LIVER, S-9, AROCLOR 1254, Method: PREINCUBATION); “inactive; negative” (Test System: AMES SALMONELLA TYPHIMURIUM, Strain/Indicator: UTH8413, Metabolic Activation: NONE, Method: PREINCUBATION); “inactive; negative” (Test System: AMES SALMONELLA TYPHIMURIUM, Strain/Indicator: UTH8413, Metabolic Activation: RAT, LIVER, S-9, AROCLOR 1254, Method: PREINCUBATION); “active; positive” (Test System: AMES SALMONELLA TYPHIMURIUM, Strain/Indicator: YG1020, Metabolic Activation: RAT, LIVER, S-9, AROCLOR 1254, Method: STANDARD PLATE); “active; positive” (Test System: AMES SALMONELLA TYPHIMURIUM, Strain/Indicator: YG1021, Metabolic Activation: RAT,LIVER, S-9, AROCLOR 1254, Method: STANDARD PLATE); “active; positive” (Test System: AMES SALMONELLA TYPHIMURIUM, Strain/Indicator: YG1024, Metabolic Activation: RAT, LIVER, S-9, AROCLOR 1254, Method: STANDARD PLATE).
